Data from the supplement of paper PMC10307832.

What was measured:
Assay in all cases: relative viability (nuclei count vs DMSO), 5 days (fraction); higher = more cells survive
[1] = system: SK-LU-1
How it was run: (§1)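 Five library-drug doses in √10 steps were combined with a fixed anchor-drug dose, or a single drug was given alone, by pin tool to lung cancer cell lines in 1536-well plates the day after seeding. Nuclei were stained and counted after 5 days. Relative viability is the nuclei count in treated wells over that in vehicle wells, taken as the median of duplicate plates.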

[2] = system: NCI-H1793
How it was run: as §1

[3] = system: CAL-12T
How it was run: as §1

[4] = system: NCI-H1734
How it was run: as §1

[5] = system: LU99A
How it was run: as §1

[6] = system: NCI-H2085
How it was run: as §1

[7] = system: NCI-H460
How it was run: as §1

[8] = system: HCC-366
How it was run: as §1

[9] = system: NCI-H441
How it was run: as §1

[10] = system: NCI-H1437
How it was run: as §1

[11] = system: COR-L23
How it was run: as §1

[12] = system: NCI-H1355
How it was run: as §1

[13] = system: NCI-H1563
How it was run: as §1

[14] = system: NCI-H1651
How it was run: as §1

[15] = system: LOU-NH91
How it was run: as §1

[16] = system: NCI-H838
How it was run: as §1

[17] = system: NCI-H2023
How it was run: as §1

[18] = system: NCI-H1975
How it was run: as §1

[19] = system: BEN
How it was run: as §1

[20] = system: NCI-H358
How it was run: as §1

## CCN(CC)CCCCNc1ncc2cc(-c3cc(OC)cc(OC)c3)c(NC(=O)NC(C)(C)C)nc2n1 + Cc1nc(NC(=O)N2CCC[C@H]2C(N)=O)sc1-c1ccnc(C(C)(C)C(F)(F)F)c1 [Alpelisib] (partner 2 µM)
[1]; first compound 0.01 µM
  relative viability: 1.06
[1]; first compound 0.03162 µM
  relative viability: 1.08
[1]; first compound 0.1 µM
  relative viability: 1.18
[1]; first compound 0.3162 µM
  relative viability: 1.21
[1]; first compound 1 µM
  relative viability: 0.65
[2]; first compound 0.01 µM
  relative viability: 0.748
[2]; first compound 0.1 µM
  relative viability: 0.958
[2]; first compound 0.3162 µM
  relative viability: 0.716
[2]; first compound 1 µM
  relative viability: 0.642
[3]; first compound 0.01 µM
  relative viability: 1.35
[3]; first compound 0.03162 µM
  relative viability: 1.24
[3]; first compound 0.1 µM
  relative viability: 1.14
[3]; first compound 0.3162 µM
  relative viability: 1.49
[3]; first compound 1 µM
  relative viability: 0.902
[4]; first compound 0.01 µM
  relative viability: 0.728
[4]; first compound 0.03162 µM
  relative viability: 0.69
[4]; first compound 0.1 µM
  relative viability: 0.713
[4]; first compound 0.3162 µM
  relative viability: 0.707
[4]; first compound 1 µM
  relative viability: 0.708
[5]; first compound 0.01 µM
  relative viability: 0.5
[5]; first compound 0.03162 µM
  relative viability: 0.523
[5]; first compound 0.1 µM
  relative viability: 0.55
[5]; first compound 0.3162 µM
  relative viability: 0.666
[5]; first compound 1 µM
  relative viability: 0.575
[6]; first compound 0.01 µM
  relative viability: 1.04
[6]; first compound 0.03162 µM
  relative viability: 0.999
[6]; first compound 0.1 µM
  relative viability: 1.02
[6]; first compound 0.3162 µM
  relative viability: 0.983
[6]; first compound 1 µM
  relative viability: 0.907
[7]; first compound 0.01 µM
  relative viability: 0.646
[7]; first compound 0.03162 µM
  relative viability: 0.58
[7]; first compound 0.1 µM
  relative viability: 0.82
[7]; first compound 0.3162 µM
  relative viability: 0.463
[7]; first compound 1 µM
  relative viability: 0.399
[8]; first compound 0.01 µM
  relative viability: 0.385
[8]; first compound 0.03162 µM
  relative viability: 0.326
[8]; first compound 0.1 µM
  relative viability: 0.757
[8]; first compound 0.3162 µM
  relative viability: 0.584
[8]; first compound 1 µM
  relative viability: 0.47
[9]; first compound 0.01 µM
  relative viability: 0.801
[9]; first compound 0.03162 µM
  relative viability: 0.62
[9]; first compound 0.1 µM
  relative viability: 0.698
[9]; first compound 0.3162 µM
  relative viability: 0.708
[9]; first compound 1 µM
  relative viability: 0.773
[10]; first compound 0.01 µM
  relative viability: 1.23
[10]; first compound 0.03162 µM
  relative viability: 0.944
[10]; first compound 0.1 µM
  relative viability: 1
[10]; first compound 0.3162 µM
  relative viability: 1.03
[10]; first compound 1 µM
  relative viability: 0.947
[11]; first compound 0.01 µM
  relative viability: 0.819
[11]; first compound 0.03162 µM
  relative viability: 1.02
[11]; first compound 0.1 µM
  relative viability: 1.19
[11]; first compound 0.3162 µM
  relative viability: 0.787
[11]; first compound 1 µM
  relative viability: 0.856
[12]; first compound 0.01 µM
  relative viability: 0.776
[12]; first compound 0.03162 µM
  relative viability: 0.847
[12]; first compound 0.1 µM
  relative viability: 0.894
[12]; first compound 0.3162 µM
  relative viability: 0.839
[12]; first compound 1 µM
  relative viability: 0.785
[13]; first compound 0.01 µM
  relative viability: 0.849
[13]; first compound 0.03162 µM
  relative viability: 0.96
[13]; first compound 0.1 µM
  relative viability: 0.896
[13]; first compound 0.3162 µM
  relative viability: 0.771
[13]; first compound 1 µM
  relative viability: 0.619
[14]; first compound 0.01 µM
  relative viability: 0.938
[14]; first compound 0.03162 µM
  relative viability: 1
[14]; first compound 0.1 µM
  relative viability: 1.1
[14]; first compound 0.3162 µM
  relative viability: 1.13
[14]; first compound 1 µM
  relative viability: 0.844
[15]; first compound 0.01 µM
  relative viability: 0.672
[15]; first compound 0.03162 µM
  relative viability: 0.673
[15]; first compound 0.1 µM
  relative viability: 0.741
[15]; first compound 0.3162 µM
  relative viability: 0.734
[15]; first compound 1 µM
  relative viability: 0.696
[16]; first compound 0.01 µM
  relative viability: 1.11
[16]; first compound 0.03162 µM
  relative viability: 0.964
[16]; first compound 0.1 µM
  relative viability: 0.996
[16]; first compound 0.3162 µM
  relative viability: 1.04
[16]; first compound 1 µM
  relative viability: 0.602
[17]; first compound 0.01 µM
  relative viability: 0.685
[17]; first compound 0.03162 µM
  relative viability: 0.608
[17]; first compound 0.1 µM
  relative viability: 0.615
[17]; first compound 0.3162 µM
  relative viability: 0.676
[17]; first compound 1 µM
  relative viability: 0.529
[18]; first compound 0.01 µM
  relative viability: 0.699
[18]; first compound 0.03162 µM
  relative viability: 0.691
[18]; first compound 0.1 µM
  relative viability: 0.707
[18]; first compound 0.3162 µM
  relative viability: 0.787
[18]; first compound 1 µM
  relative viability: 0.451
[19]; first compound 0.01 µM
  relative viability: 1.17
[19]; first compound 0.03162 µM
  relative viability: 0.891
[19]; first compound 0.1 µM
  relative viability: 0.882
[19]; first compound 0.3162 µM
  relative viability: 1.12
[19]; first compound 1 µM
  relative viability: 0.801
[20]; first compound 0.01 µM
  relative viability: 1.06
[20]; first compound 0.03162 µM
  relative viability: 0.901
[20]; first compound 0.1 µM
  relative viability: 1.01
[20]; first compound 0.3162 µM
  relative viability: 0.848
[20]; first compound 1 µM
  relative viability: 0.725
